Paper PMC9276676, “Difluoromethylornithine (DFMO) and AMXT 1501 inhibit capsule biosynthesis in pneumococci” (Scientific Reports, 2022)

Legend:
S. pneumoniae TIGR4 = assay type: cell-based, Streptococcus pneumoniae; details: DFMO 137 mM (1/2 MIC), n = 5
Procedure: This was done to directly compare possible changes in intracellular concentrations of polyamines and capsule precursors as a result of DFMO inhibition of polyamine synthesis to the earlier report where polyamine synthesis was affected via gene deletion in TIGR4[24]. […] Cells were harvested (5000×g, 10 min, 4 °C), re-suspended in extraction solvent [40% acetonitrile, 40% methanol, 20% water with formic acid (0.1 M)] and transferred to bead-beater tubes (MP Biomedicals, Irvine, CA, USA). Cells were lysed using a FastPrep-24™ Classic (45 s, 6.5 m/s, RT, 3 times) (MP Biomedicals, Irvine, CA, USA) and incubated on ice (5 min after each spin). TIGR4 lysates were clarified (6000×g, 5 min, 4 °C), and metabolite differentiation and detection were performed using published protocols[28],[29]. Liquid chromatography-mass spectrometry-based (LC–MS) metabolomic analysis was performed with an Agilent Accurate Mass 6230 TOF coupled with an Agilent 1290 LC system using a Cogent Diamond Hydride Type C column. Briefly, the mobile phase consisted of the following: solvent A (ddH2O with 0.2% formic acid) and solvent B (acetonitrile with 0.2% formic acid). The gradient used was as follows: 0–2 min, 85% B; 3–5 min, 80% B; 6–7 min, 75% B; 8–9 min, 70% B; 10–11.1 min, 50% B; 11.1–14 min 20% B; 14.1–24 min 5% B followed by a 10 min re-equilibration period at 85% B at a flow rate of 0.4 mL/min. Mass axis dynamics was calibrated by continuous infusion of a reference mass solution using an isocratic pump. […] Metabolite identities were searched for using a mass tolerance of < 0.005 Da. Metabolite concentrations from the 5 biological replicates were normalized to biomass based on measurement of residual peptide content in individual samples using the Pierce BCA Protein Assay kit (Thermo Fisher Scientific, Waltham, MA, USA). Data were analyzed using Profinder B.07.00 software (Agilent Technologies, Santa Clara, CA, USA). Extracted molecular features detected in the mass analyzer were identified using accurate mass values and used to generate empirical molecular formulae using an in-house metabolite database that included known intermediates, amino acid precursors and polyamines and their derivatives. Statistical analysis of metabolite peak intensity data was performed using MetaboAnalyst 4.0[30]. Data were normalized (quantile), log transformed and significant fold change between WT and DFMO-treated WT were identified by Student’s t-test (p ≤ 0.05).

[1] = parameters: method as in PMID 30262852; details: human ref 35; cited from earlier work
EF3030 = test: Viability/replication at 1/2 MIC DFMO (CFU on blood agar); assay type: cell-based, Streptococcus pneumoniae; details: 1/2 MIC DFMO (137 mM)
Procedure: (§1) S. pneumoniae serotypes 4 (TIGR4), 2 (D39), 19F (EF3030) and 3 (WU2) were cultured in Todd Hewitt broth supplemented with yeast extract (THY). Supplementation with DFMO ranging from 1.1 to 549 mM was carried out in triplicate in a 96-well plate and incubated at 37 °C and 5% CO2 in a Cytation™ 5 cell imaging multi-mode reader (BioTek, Winooski, VT). The change in optical density at 600 nm (OD600) was measured every hour for 24 h and used to determine the minimum inhibitory concentration (MIC) of DFMO. The optical density data was analyzed using GrowthRates 4.0 software. To determine whether DFMO at sub-MIC is bacteriostatic or lethal to pneumococcal cells, all strains were cultured in the presence or absence of 1/2 MIC DFMO. OD600 was measured every hour and CFU were enumerated on a blood agar plate (BAP) every 2 h over an 8 h incubation period.

TIGR4 = test: as above; assay type: cell-based, Streptococcus pneumoniae; details: 1/2 MIC DFMO (137 mM)
Procedure: as §1

D39 = test: as above; assay type: cell-based, Streptococcus pneumoniae; details: 1/2 MIC DFMO (137 mM)
Procedure: as §1

NCCC[C@](N)(C(=O)O)C(F)F [DFMO, α-difluoromethylornithine]
5,10-methylenetetrahydrofolate, fold change TIGR4+DFMO /TIGR4 (S. pneumoniae TIGR4): 4.4 | 5-phospho-α-D-ribose 1-diphosphate (PRPP), fold change TIGR4+DFMO /TIGR4 (S. pneumoniae TIGR4): 3.8 | 6-Phosphogluconate, fold change TIGR4+DFMO /TIGR4 (S. pneumoniae TIGR4): 7.8 | Agmatine, fold change TIGR4+DFMO /TIGR4 (S. pneumoniae TIGR4): -2.0 | Arginine, fold change TIGR4+DFMO /TIGR4 (S. pneumoniae TIGR4): 1.1 | Cadaverine, fold change TIGR4+DFMO /TIGR4 (S. pneumoniae TIGR4): -1.5 | Fructose 6-phosphate, fold change TIGR4+DFMO /TIGR4 (S. pneumoniae TIGR4): -16.8 | Fucose, fold change TIGR4+DFMO /TIGR4 (S. pneumoniae TIGR4): -1.3 | GSH, fold change TIGR4+DFMO /TIGR4 (S. pneumoniae TIGR4): -23.2 | GSSG, fold change TIGR4+DFMO /TIGR4 (S. pneumoniae TIGR4): -41.3 | Galactose 1-phosphate, fold change TIGR4+DFMO /TIGR4 (S. pneumoniae TIGR4): -16.8 | Glucosamine 6-phosphate, fold change TIGR4+DFMO /TIGR4 (S. pneumoniae TIGR4): -21.0 | Glucose 6-phosphate, fold change TIGR4+DFMO /TIGR4 (S. pneumoniae TIGR4): 10.6 | Glyceraldehyde 3-phosphate, fold change TIGR4+DFMO /TIGR4 (S. pneumoniae TIGR4): -308.6 | Lysine, fold change TIGR4+DFMO /TIGR4 (S. pneumoniae TIGR4): -1.7 | Methionine, fold change TIGR4+DFMO /TIGR4 (S. pneumoniae TIGR4): -1.8 | N-Acetylspermidine, fold change TIGR4+DFMO /TIGR4 (S. pneumoniae TIGR4): -1.6 | NADH, fold change TIGR4+DFMO /TIGR4 (S. pneumoniae TIGR4): -358.8 | NADPH, fold change TIGR4+DFMO /TIGR4 (S. pneumoniae TIGR4): 25.1 | Ornithine, fold change TIGR4+DFMO /TIGR4 (S. pneumoniae TIGR4): -1.3 | Putrescine, fold change TIGR4+DFMO /TIGR4 (S. pneumoniae TIGR4): -1.9 | Pyruvate, fold change TIGR4+DFMO /TIGR4 (S. pneumoniae TIGR4): -1.74 | S-adenosylmethionine, fold change TIGR4+DFMO /TIGR4 (S. pneumoniae TIGR4): 64.2 | Sedoheptulose 7-phosphate, fold change TIGR4+DFMO /TIGR4 (S. pneumoniae TIGR4): -13.5 | Spermidine, fold change TIGR4+DFMO /TIGR4 (S. pneumoniae TIGR4): -3.1 | Spermine, fold change TIGR4+DFMO /TIGR4 (S. pneumoniae TIGR4): 26.6 | Tetrahydrofolate, fold change TIGR4+DFMO /TIGR4 (S. pneumoniae TIGR4): -1.4 | UDP, fold change TIGR4+DFMO /TIGR4 (S. pneumoniae TIGR4): -53.1 | UDP-Galactose, fold change TIGR4+DFMO /TIGR4 (S. pneumoniae TIGR4): -66.5 | UDP-Glucose, fold change TIGR4+DFMO /TIGR4 (S. pneumoniae TIGR4): -66.5 | UDP-N-acetylfucosamine, fold change TIGR4+DFMO /TIGR4 (S. pneumoniae TIGR4): 2.3 | UDP-N-acetylgalactosamine, fold change TIGR4+DFMO /TIGR4 (S. pneumoniae TIGR4): -18.9 | UDP-N-acetylglucosamine, fold change TIGR4+DFMO /TIGR4 (S. pneumoniae TIGR4): -18.9 | UDP-N-acetylmannosamine, fold change TIGR4+DFMO /TIGR4 (S. pneumoniae TIGR4): -18.9 | UDP-N-acetylmuramic acid, fold change TIGR4+DFMO /TIGR4 (S. pneumoniae TIGR4): -259.2 | UMP, fold change TIGR4+DFMO /TIGR4 (S. pneumoniae TIGR4): -2.1 | safe dosage for use in human [1]: around 1.0 g/m^2/day | safe dosage for use in human, as concentration [1]: 1 to 2 mM | effect on viability (viability curves) (EF3030): some bacteriostatic effect | effect on viability (viability curves) (TIGR4): some bacteriostatic effect | effect on viability (viability curves) (D39): some bacteriostatic effect
